The record followed here is patent US20080241280A1, “Usage of the Plant of Genus Ampelopsis and Extracts Thereof For Manufacture of Medicament and Functional Food” (priority 2004, published 2008).

The structures appear in SMILES notation.

What all share (format): in vivo
In assay [1] the test system is C57/B6 mice. Description: Pentobarbital (30 mg/kg i.p.) prolonged sleeping time in mice, loss of righting reflex. Conditions: 30 mg/kg oral, 30 min prior to sodium pentobarbital 30 mg/kg i.p.; p<0.05, n>4. On the procedure:
C57/B6 mice were randomised into groups and orally administered; ECBRC-T2 (30 mg/kg), melatonin (30 mg/kg), Radix Valerianae (140 mg/kg) or vehicle (10 ml/kg H2O), 30 min prior to low dose injection of sodium pentobarbital (30 mg/kg, i/p.). The animals were then placed on a heating pad (37° C.) and their sleep latency to onset of sleep and the duration of sleep determined according to loss of righting reflex.

The subject of assay [2] is C57/B6 mice. Description: Low dose pentobarbital (16 mg/kg i.p.) sleep time in mice, loss of righting reflex. Conditions: for mice sleep time: Table 3, sodium pentobarbital 16 mg/kg i.p. On the procedure:
C57/B6 mice were randomised into groups and orally administered; ECBRC-T2 (30 mg/kg), melatonin (30 mg/kg), Radix Valerianae (140 mg/kg) or vehicle (10 ml/kg H2O), 30 min prior to low dose injection of sodium pentobarbital (16 mg/kg, i/p.). The animals were then placed on a heating pad (37° C.) and their sleep latency to onset of sleep and the duration of sleep determined according to loss of righting reflex.
C57/B6 mice were randomised into groups and orally administered ECBRC-T1 (10,50,100,500 mg/kg), 30 min prior to low dose injection of sodium pentobarbital (16 mg/kg, i/p.). The animals were then placed on a heating pad (37° C.) and their sleep latency to onset of sleep and the duration of sleep determined according to loss of righting reflex. […]
The animals were then placed on a heating pad (37° C.) and their sleep latency to onset of sleep and the duration of sleep determined according to loss of righting reflex.

Assay [3] relates to male C57/B6 mice. In words: Remote sensing (telemetric) determination of mice activities. Particulars: Table 5, 20 mg/kg p.o., 6 hours after administration, control 2% EtOH. On the procedure: Remote sensing determination of mice activities.
Telemetric activity and temperature monitors were surgically implanted sub-coetaneously into male C57/B6 mice under ketamie (Alfasan, batch number: 112319) and xyalsine (Alfasan, batch number: 073210) (75/10 mg/kg, i.p.) anaesthesia to remotely record activity Correct placement was determined using X-ray radiography.

In the case of `COc1ccc2[nH]cc(CCNC(C)=O)c2c1` [Melatonin, melatonin], the “sleep time compared with the vehicle control group” value in assay [1] is reported as “significantly difference”. In addition, the “Sleep time (min ± SEM)” value in assay [2] (Table 1, 30 mg/kg oral, 30 min prior to sodium pentobarbital 16 mg/kg i.p.) is recorded as 63 ± 11 min. Also, the mice sleep time turned out to be 31 ± 4 n = 4 in assay [2] (10 mg/kg oral), 63 ± 5 n = 6 in assay [2] (20 mg/kg oral) and 68 ± 8 n = 6 in assay [2] (30 mg/kg oral).
Regarding `CN1CCN(C(=O)OC2c3nccnc3C(=O)N2c2ccc(Cl)cn2)CC1` (stereo not shown) [Zopiclone, zopiclone], the “Telemetric Activity (% sleep time ± SEM)” value in assay [3] was 66.6 ± 5.1 %; in assay [3] (listed as zopiclone), “significantly extended”.
